Measured values taken from patent US11540518B2, “Fungicidal oxadiazoles” (FMC Corporation, priority 2017, dated 2023).

Key:
Phakopsora pachyrhizi = assay: Test A: Asian soybean rust control on soybean seedlings; assay type: in vivo; conditions: sprayed to run-off on soybean seedlings, inoculated the following day, 100 = 100% disease control, 0 = no control; for pest or weed control at 10 ppm: Phakopsora pachyrhizi, 216 h, read-out: Test A disease control rating
Excerpt: General protocol for preparing test suspensions for Tests A-C: the test compounds were first dissolved in acetone in an amount equal to 3% of the final volume and then suspended at the desired concentration (in ppm) in acetone and purified water (50/50 mix by volume) containing 250 ppm of the surfactant PEG400 (polyhydric alcohol esters). The resulting test suspensions were then used in Tests A-C.
The test solution was sprayed to the point of run-off on soybean seedlings. The following day the seedlings were inoculated with a spore suspension of Phakopsora pachyrhizi (the causal agent of Asian soybean rust) and incubated in a saturated atmosphere at 22° C. for 24 h, and then moved to a growth chamber at 22° C. for 8 days, after which time visual disease ratings were made.
Results for Tests A-C are given in Table A. In the Table, a rating of 100 indicates 100% disease control and a rating of 0 indicates no disease control (relative to the controls). A dash (-) indicates the compound was not tested.

[1] = tested on: Puccinia recondita f. sp. tritici; assay: Test C: wheat leaf rust control on wheat seedlings; assay type: in vivo; conditions: sprayed to run-off on wheat seedlings, inoculated the following day, 100 = 100% disease control, 0 = no control; for pest or weed control at 10 ppm: Puccinia recondita, 168 h, read-out: Test C disease control rating
Excerpt: General protocol for preparing test suspensions for Tests A-C: the test compounds were first dissolved in acetone in an amount equal to 3% of the final volume and then suspended at the desired concentration (in ppm) in acetone and purified water (50/50 mix by volume) containing 250 ppm of the surfactant PEG400 (polyhydric alcohol esters). The resulting test suspensions were then used in Tests A-C. The test solution was sprayed to the point of run-off on wheat seedlings. The following day the seedlings were inoculated with a spore suspension of Puccinia recondita f. sp. tritici (the causal agent of wheat leaf rust) and incubated in a saturated atmosphere at 20° C. for 24 h, and then moved to a growth chamber at 20° C. for 6 days, after which time disease ratings were made. Results for Tests A-C are given in Table A. In the Table, a rating of 100 indicates 100% disease control and a rating of 0 indicates no disease control (relative to the controls). A dash (-) indicates the compound was not tested.

Row | SMILES | Test A disease control rating (Phakopsora pachyrhizi; 10 ppm) | Test C disease control rating ([1]; 10 ppm) | Test A disease control rating (Phakopsora pachyrhizi; 50 ppm) | Test C disease control rating ([1]; 50 ppm) | also measured
1 | CCNC(=O)OC(C)c1ccc(-c2noc(C(F)(F)F)n2)cc1 (racemic) [Compound 19] | 100% | 74% | – | – | –
2 | COC(=O)c1ccc(CNC(=O)OC(C)c2ccc(-c3noc(C(F)(F)F)n3)cc2)cc1 (racemic) [Compound 25] | 100% | 26% | – | – | –
3 | CCOC(=O)c1ccc(CNC(=O)OC(C)c2ccc(-c3noc(C(F)(F)F)n3)cc2)cc1 (racemic) [Compound 27] | 100% | 0% | – | – | –
4 | CCNC(=O)OCCCc1ccc(-c2noc(C(F)(F)F)n2)cc1 [Compound 20] | 100% | 99% | – | – | –
5 | O=C(OCCCc1ccc(-c2noc(C(F)(F)F)n2)cc1)n1ccnc1 [Compound 21] | – | – | 100% | 99% | –
6 | O=C(Nc1cccnc1)OCc1ccc(-c2noc(C(F)(F)F)n2)cc1 [Compound 22] | 99% | 97% | – | – | –
7 | CC(OC(=O)Nc1cccnc1)c1ccc(-c2noc(C(F)(F)F)n2)cc1 (stereo not drawn) [Compound 23, 1-[4-[5-(trifluoromethyl)-1,2,4-oxadiazol-3-yl]phenyl]ethyl N-3-pyridinylcarbamate] | – | – | – | – | pest or weed control at 10 ppm (Phakopsora pachyrhizi; 10 ppm): 100%; pest or weed control at 10 ppm ([1]; 10 ppm): 97%
8 | COC(=O)c1ccc(CNC(=O)OCc2ccc(-c3noc(C(F)(F)F)n3)cc2)cc1 [Compound 24] | 13% | 68% | – | – | –
9 | CCOC(=O)c1ccc(CNC(=O)OCc2ccc(-c3noc(C(F)(F)F)n3)cc2)cc1 [Compound 26] | 95% | 26% | – | – | –
10 | CN(C)C(=O)OCCCc1ccc(-c2noc(C(F)(F)F)n2)cc1 [Compound 28] | 100% | 40% | – | – | –
11 | C=CCNC(=O)OCCCc1ccc(-c2noc(C(F)(F)F)n2)cc1 [Compound 29] | 100% | 74% | – | – | –
12 | C#CCNC(=O)OCCCc1ccc(-c2noc(C(F)(F)F)n2)cc1 [Compound 30] | 100% | 99% | – | – | –
13 | CNC(=O)OCCCc1ccc(-c2noc(C(F)(F)F)n2)cc1 [Compound 31] | 100% | 99% | – | – | –
14 | O=C(Nc1cccnc1)OCCc1ccc(-c2noc(C(F)(F)F)n2)cc1 [Compound 34] | – | – | 100% | 98% | –
15 | O=C(Nc1cccnc1)OCCCc1ccc(-c2noc(C(F)(F)F)n2)cc1 [Compound 35] | – | – | 100% | 100% | –
16 | CC#CCNC(=O)OCc1ccc(-c2noc(C(F)(F)F)n2)cc1 [Compound 36] | 100% | 100% | – | – | –
17 | C#CCNC(=O)OCc1ccc(-c2noc(C(F)(F)F)n2)s1 [Compound 37] | – | – | 100% | 100% | –
18 | O=C(OCCc1ccc(-c2noc(C(F)(F)F)n2)cc1)n1ccnc1 [Compound 40, 2-[4-[5-(trifluoromethyl)-1,2,4-oxadiazol-3-yl]phenyl]ethyl-1H-imidazole-1-carboxylate] | – | – | – | – | pest or weed control at 10 ppm (Phakopsora pachyrhizi; 10 ppm): 0%; pest or weed control at 10 ppm ([1]; 10 ppm): 18%
19 | NC(=O)OCCc1ccc(-c2noc(C(F)(F)F)n2)cc1 [Compound 41] | 100% | 99% | – | – | –
20 | CN(C)C(=O)OCCc1ccc(-c2noc(C(F)(F)F)n2)cc1 [Compound 44] | 100% | 41% | – | – | –
21 | C#CCNC(=O)OCCc1ccc(-c2noc(C(F)(F)F)n2)cc1 [Compound 45] | 100% | 93% | – | – | –

Row | SMILES | Test A disease control rating (Phakopsora pachyrhizi; 10 ppm) | Test C disease control rating ([1]; 10 ppm) | Test A disease control rating (Phakopsora pachyrhizi; 50 ppm) | Test C disease control rating ([1]; 50 ppm) | also measured
22 | COC(=O)c1ccc(NC(=O)OCc2ccc(-c3noc(C(F)(F)F)n3)cc2)cc1 [Compound 47] | – | – | 100% | 41% | –
23 | COC(=O)c1ccc(NC(=O)OC(C)c2ccc(-c3noc(C(F)(F)F)n3)cc2)cc1 (stereo not drawn) [Compound 48] | – | – | 100% | 97% | –
24 | COC(=O)c1ccc(NC(=O)OCCc2ccc(-c3noc(C(F)(F)F)n3)cc2)cc1 [Compound 49] | – | – | 96% | 0% | –
25 | COC(=O)c1ccc(NC(=O)OCCCc2ccc(-c3noc(C(F)(F)F)n3)cc2)cc1 [Compound 50] | – | – | 0% | 0% | –
26 | C=CCNC(=O)OCc1ccc(-c2noc(C(F)(F)F)n2)cc1 [Compound 51] | 100% | 99% | – | – | –
27 | CCN(C)C(=O)OCc1ccc(-c2noc(C(F)(F)F)n2)cc1 [Compound 52] | 100% | 68% | – | – | –
28 | CCN(CC)C(=O)OCc1ccc(-c2noc(C(F)(F)F)n2)cc1 [Compound 53] | 100% | 68% | – | – | –
29 | O=C(NC1CC1)OCc1ccc(-c2noc(C(F)(F)F)n2)cc1 [Compound 54] | 100% | 92% | – | – | –
30 | N#CCNC(=O)OCc1ccc(-c2noc(C(F)(F)F)n2)cc1 [Compound 55] | 100% | 86% | – | – | –
31 | CCOC(=O)c1ccc(NC(=O)OCc2ccc(-c3noc(C(F)(F)F)n3)cc2)cc1 [Compound 57] | 100% | 0% | – | – | –
32 | CCOC(=O)c1ccc(NC(=O)OC(C)c2ccc(-c3noc(C(F)(F)F)n3)cc2)cc1 (stereo not drawn) [Compound 58] | – | – | 100% | 79% | –
33 | CCOC(=O)c1ccc(NC(=O)OCCc2ccc(-c3noc(C(F)(F)F)n3)cc2)cc1 [Compound 59] | – | – | 96% | 0% | –
34 | CCOC(=O)c1ccc(NC(=O)OCCCc2ccc(-c3noc(C(F)(F)F)n3)cc2)cc1 [Compound 60] | – | – | 0% | 0% | –
35 | C#CCNC(=O)OC(C)c1ccc(-c2noc(C(F)(F)F)n2)s1 (stereo not drawn) [Compound 61] | 100% | 100% | – | – | –
36 | CC#CCNC(=O)OC(C)c1ccc(-c2noc(C(F)(F)F)n2)cc1 (stereo not drawn) [Compound 62] | – | – | 100% | 100% | –
37 | CC#CCNC(=O)OCCc1ccc(-c2noc(C(F)(F)F)n2)cc1 [Compound 63] | – | – | 100% | 100% | –
38 | CC#CCNC(=O)OCCCc1ccc(-c2noc(C(F)(F)F)n2)cc1 [Compound 64] | – | – | 100% | 100% | –
39 | C#CCCNC(=O)OCCCc1ccc(-c2noc(C(F)(F)F)n2)cc1 [Compound 65] | – | – | 100% | 100% | –
40 | C#CCCNC(=O)OCCc1ccc(-c2noc(C(F)(F)F)n2)cc1 [Compound 66] | – | – | 100% | 100% | –
41 | C#CCCNC(=O)OC(C)c1ccc(-c2noc(C(F)(F)F)n2)cc1 (stereo not drawn) [Compound 67] | – | – | 100% | 100% | –
42 | CCOC(=O)c1ccc(CNC(=O)OCCc2ccc(-c3noc(C(F)(F)F)n3)cc2)cc1 [Compound 68] | – | – | 99% | 0% | –
